Experiments:
[1] = biological target: H2 nucleobase transporter; assay: inhibition of […] [3H]-hypoxanthine uptake in bloodstream-form trypanosomes; format: cell-based, Trypanosoma brucei brucei
[2] = biological target: H3 nucleobase transporter; assay: as above; format: cell-based, Trypanosoma brucei brucei
[3] = biological target: T1, P2 aminopurine transporter (TbAT1) (Trypanosoma brucei, UniProt Q9Y0I0); assay: inhibition of […] [3H]-adenosine uptake; format: cell-based
T1 sequence (Q9Y0I0 1-463): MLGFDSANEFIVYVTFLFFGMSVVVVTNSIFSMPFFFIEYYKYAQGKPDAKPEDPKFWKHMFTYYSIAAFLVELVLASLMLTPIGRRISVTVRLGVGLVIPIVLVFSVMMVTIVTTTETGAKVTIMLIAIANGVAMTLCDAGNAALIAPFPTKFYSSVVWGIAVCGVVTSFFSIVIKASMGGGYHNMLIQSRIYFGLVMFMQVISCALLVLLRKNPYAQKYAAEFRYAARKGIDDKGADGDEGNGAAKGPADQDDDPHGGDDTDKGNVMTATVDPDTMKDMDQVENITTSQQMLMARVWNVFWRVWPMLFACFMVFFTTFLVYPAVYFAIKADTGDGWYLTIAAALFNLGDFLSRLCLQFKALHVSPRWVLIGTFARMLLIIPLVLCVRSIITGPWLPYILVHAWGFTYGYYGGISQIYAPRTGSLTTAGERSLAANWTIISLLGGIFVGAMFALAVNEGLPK

## Nc1ncnc2n[nH]cc12 [aminopurinol]
[1]
  Ki: 230 ± 35 µM
[2]
  Ki: 105 ± 24 µM
[3]
  Ki: 75.3 ± 5.7 µM
